Results reported in US9241488B2, “Azole derivative, method for producing azole derivative, and intermediate compound” (KUREHA CORPORATION, priority 2011, dated 2016).
Like-named read-outs stand apart in the source and are kept apart here.

Key:
[1] = system: Wheat eye spot (Pseudocercoporella herpotrichoides); assay: Anti-bacterial effect on various microorganisms (plate medium), P.h; type: cell-based
[2] = system: Wheat pink snow mold (Microdochium nivale); assay: Anti-bacterial effect on various microorganisms (plate medium), M.n; type: cell-based
[3] = system: Sclerotinia rot (Sclerotinia sclerotiorum); assay: Anti-bacterial effect on various microorganisms (plate medium), S.s; type: cell-based
[4] = system: Wheat Septoria nodorum blotch microorganism (Phaeosphaeria nodorum); assay: Anti-bacterial effect on various microorganisms (plate medium), P.n; type: cell-based
[5] = system: Rice blast (Pyricularia oryzae); type: cell-based
[6] = system: wheat brown rust-causing microorganisms; assay: Controlling effect on wheat brown rust caused by seed treatment (pot test); type: in vivo, Puccinia recondita; conditions: 2 mg compound per 1 g wheat seeds, inoculated 21 days after seeding, evaluated 14 days after inoculation
Description: An efficacy against wheat brown rust was evaluated by performing a pot test. […] The pots were kept in a greenhouse with supplying water underneath. Twenty one days after the seeding, wheat brown rust-causing microorganisms was inoculated, and the pots were stored in a humidity chamber for 2 days. The pots were kept again in a greenhouse with supplying water underneath. Fourteen days after the inoculation, a lesion degree was evaluated, and a protective value was calculated. The protective value was calculated with use of the following formula, and was defined as a wheat brown rust protective value. Protective value=(1−lesion degree in treated plot/lesion degree in untreated plot)×100(%)

[7] = system: Rice bacterial seeding blight (Rhizopus oryzae); assay: Anti-bacterial effect on various microorganisms (plate medium), R.o; type: cell-based
[8] = system: Alternaria blotch (Alternaria alternata); assay: Anti-bacterial effect on various microorganisms (plate medium), A.m; type: cell-based
[9] = system: Gray mold (Botritis cinerea); assay: Anti-bacterial effect on various microorganisms (plate medium), B.c; type: cell-based
[10] = system: Rice bakanae disease (Giberella fujikuroi); assay: Anti-bacterial effect on various microorganisms (plate medium), G.f; type: cell-based
[11] = system: wheat leaf blight-causing microorganisms; assay: Anti-bacterial effect on wheat leaf blight-causing microorganisms (PDA plate, mycelial growth inhibition); type: cell-based, Septoria tritici; conditions: 1.25 mg/L in PDA plate medium, 25° C., 14 days
Description: In Test Examples, an anti-bacterial effect of a compound in accordance with the present invention on the wheat leaf blight-causing microorganisms was tested, and was compared with the anti-bacterial effect of a comparative compound (1).
A dimethyl sulfoxide solution (0.6 ml) containing a compound in accordance with the present invention was added to a PDA medium (potato dextrose agar medium) (60 ml) having about 60° C., and the resultant mixture was mixed thoroughly in a 100-ml conical flask. The mixture was poured into a dish, and was solidified. […]
On the other hand, a subject microorganism previously cultured on a plate medium was cut out with use of a cork borer whose diameter was 4 mm, and the wheat leaf blight-causing microorganism on the plate medium thus cut out was inoculated to the chemical-containing plate medium described above. After such inoculation, the chemical-containing plate medium was incubated at 25° C. for 14 days, and then diameters of its flora were measured. A % mycelial growth inhibition was calculated with use of the formula. R=100(dc−dt)/dc (where R=% mycelial extension inhibition, dc=flora diameter in untreated plate, dt=flora diameter in treated plate)
The results obtained as described above were evaluated on a five-point scale according to the following criteria.
• 5: % Mycerial growth inhibition of 80% or higher • 4: % Mycerial growth inhibition of less than 80 to 60% or higher • 3: % Mycerial growth inhibition of less than 60 to 40% or higher • 2: % Mycerial growth inhibition of less than 40 to 20% or higher • 1: % Mycerial growth inhibition of less than 20%

[12] = system: Barley loose smut (Ustilago nuda); assay: Anti-bacterial effect on various microorganisms (plate medium), U.n; type: cell-based
[13] = system: Wheat fusarium blight (Fusarium graminearum); type: cell-based
[14] = system: wheat-brown-rust-causing microorganisms; assay: Controlling effect on wheat brown rust (spray, pot test); type: in vivo, Puccinia recondita; conditions: 1 mg/L sprayed at 1,000 L/ha, wheat NORIN No. 61, 9 to 14 days after inoculation
Description: Onto a wheat plant (cultivar: NORIN No. 61) grown to the two-leaf stage with use of a square plastic pot (6 cm×6 cm), a wettable formulation such as Formulation Example 1 which was diluted and suspended in water at a concentration of 1 mg/L was sprayed at a rate of 1,000 L/ha. The sprayed leaves were air-dried, and inoculated with spore suspension of wheat-brown-rust-causing microorganisms (adjusted at 200 spores/vision, […] was added at 60 ppm) by spraying, and kept at 25° C. and a high humidity for 48 hours. Thereafter, the plant was kept in a greenhouse. Nine to fourteen days after inoculation, the wheat brown rust lesion degree was evaluated. The protective value was calculated by the following equation. Protective value (%)=(1-mean lesion degree in sprayed plot/mean lesion degree in unsprayed plot)×100 [table] [table]

[15] = system: Barley leaf blotch (Rhynchosporium secalis); assay: Anti-bacterial effect on various microorganisms (plate medium), R. sec; type: cell-based
[16] = system: Cucumber fusarium wilt (Fusarium oxysporum); assay: Anti-bacterial effect on various microorganisms (plate medium), F.c; type: cell-based
[17] = system: Rice blast (Pyricularia oryzae); type: cell-based; conditions: 5 mg/L
[18] = system: Wheat leaf blight (Septoria tritici); assay: Anti-bacterial effect of V′ compounds on various microorganisms (plate medium), S.t; type: cell-based; conditions: 5 mg/L
[19] = system: Swollen rice seedling (Rhizopus oryzae); assay: Anti-bacterial effect of V′ compounds on various microorganisms (plate medium), R.o; type: cell-based; conditions: 5 mg/L
[20] = system: Barley leaf blotch (Rhynchosporium secalis); assay: Anti-bacterial effect of V′ compounds on various microorganisms (plate medium), R. sec; type: cell-based; conditions: 5 mg/L
G.g = assay: Anti-bacterial effect of V′ compounds on various microorganisms (plate medium), G.g; type: cell-based; conditions: 5 mg/L
[21] = system: Wheat Septoria nodorum blotch microorganism (Phaeosphaeria nodorum); assay: Anti-bacterial effect of V′ compounds on various microorganisms (plate medium), P.n; type: cell-based; conditions: 5 mg/L
[22] = system: Snow mold of winter wheat (Microdochium nivale); assay: Anti-bacterial effect of V′ compounds on various microorganisms (plate medium), M.n; type: cell-based; conditions: 5 mg/L
[23] = system: Barley stripe (Pyrenophora graminea); assay: Anti-bacterial effect of V′ compounds on various microorganisms (plate medium), P.g; type: cell-based; conditions: 5 mg/L

SMILES	Growth inhibition grade P.h ([1]; 1.25 mg/L)	Growth inhibition grade P.h ([1]; 5 mg/L)	Growth inhibition grade M.n ([2]; 1.25 mg/L)	Growth inhibition grade M.n ([2]; 5 mg/L)	Growth inhibition grade S.s ([3]; 1.25 mg/L)	Growth inhibition grade S.s ([3]; 5 mg/L)	Growth inhibition grade P.n ([4]; 1.25 mg/L)	Growth inhibition grade P.n ([4]; 5 mg/L)	Growth inhibition grade P.o ([5]; 1.25 mg/L)	Growth inhibition grade P.o ([5]; 5 mg/L)	Growth inhibition grade R.o ([7]; 1.25 mg/L)	Growth inhibition grade R.o ([7]; 5 mg/L)	Growth inhibition grade A.m ([8]; 1.25 mg/L)	Growth inhibition grade A.m ([8]; 5 mg/L)	Growth inhibition grade B.c ([9]; 1.25 mg/L)	Growth inhibition grade B.c ([9]; 5 mg/L)	Growth inhibition grade G.f ([10]; 1.25 mg/L)	Growth inhibition grade G.f ([10]; 5 mg/L)	Growth inhibition grade [11]	Growth inhibition grade U.n ([12]; 1.25 mg/L)	also measured
COC[C@]1(CCl)CC[C@@H](Cc2ccc(Cl)cc2)[C@]1(O)Cn1cncn1 (racemic) [Compound I-16a, (1RS,2RS,5SR)-5-(4-chlorobenzyl)-2-chloromethyl-2-methoxymethyl-1H-[1,2,4]triazole-1-ylmethylcyclopentanol]	4 (% Mycerial growth inhibition of less than 80 to 60% or higher)	5 (% Mycerial growth inhibition of 80% or higher)	5 (% Mycerial growth inhibition of 80% or higher)	5 (% Mycerial growth inhibition of 80% or higher)	5 (% Mycerial growth inhibition of 80% or higher)	5 (% Mycerial growth inhibition of 80% or higher)	5 (% Mycerial growth inhibition of 80% or higher)	5 (% Mycerial growth inhibition of 80% or higher)	5 (% Mycerial growth inhibition of 80% or higher)	5 (% Mycerial growth inhibition of 80% or higher)	5 (% Mycerial growth inhibition of 80% or higher)	5 (% Mycerial growth inhibition of 80% or higher)	4 (% Mycerial growth inhibition of less than 80 to 60% or higher)	5 (% Mycerial growth inhibition of 80% or higher)	5 (% Mycerial growth inhibition of 80% or higher)	5 (% Mycerial growth inhibition of 80% or higher)	5 (% Mycerial growth inhibition of 80% or higher)	5 (% Mycerial growth inhibition of 80% or higher)	5 (% Mycerial growth inhibition of 80% or higher)	5 (% Mycerial growth inhibition of 80% or higher)	wheat brown rust protective value [6]: 100%; Growth inhibition grade U.n ([12]; 5 mg/L): 5 (% Mycerial growth inhibition of 80% or higher); Growth inhibition grade F.g ([13]; 1.25 mg/L): 5 (% Mycerial growth inhibition of 80% or higher); Growth inhibition grade F.g ([13]; 5 mg/L): 5 (% Mycerial growth inhibition of 80% or higher); Protective value [14]: 4 (61 to 80); Growth inhibition grade R. sec ([15]; 1.25 mg/L): 5 (% Mycerial growth inhibition of 80% or higher); Growth inhibition grade R. sec ([15]; 5 mg/L): 5 (% Mycerial growth inhibition of 80% or higher); Growth inhibition grade F.c ([16]; 1.25 mg/L): 5 (% Mycerial growth inhibition of 80% or higher); Growth inhibition grade F.c ([16]; 5 mg/L): 5 (% Mycerial growth inhibition of 80% or higher)
CCOC[C@]1(CCl)CC[C@@H](Cc2ccccc2)[C@]1(O)Cn1cncn1 (racemic) [Compound I-234, (1RS,2RS,5SR)-5-benzyl-2-chloromethyl-2-ethoxymethyl-1H-[1,2,4]triazole-1-ylmethylcyclopentanol]	4 (% Mycerial growth inhibition of less than 80 to 60% or higher)	5 (% Mycerial growth inhibition of 80% or higher)	5 (% Mycerial growth inhibition of 80% or higher)	5 (% Mycerial growth inhibition of 80% or higher)	5 (% Mycerial growth inhibition of 80% or higher)	5 (% Mycerial growth inhibition of 80% or higher)	5 (% Mycerial growth inhibition of 80% or higher)	5 (% Mycerial growth inhibition of 80% or higher)	5 (% Mycerial growth inhibition of 80% or higher)	5 (% Mycerial growth inhibition of 80% or higher)	5 (% Mycerial growth inhibition of 80% or higher)	5 (% Mycerial growth inhibition of 80% or higher)	4 (% Mycerial growth inhibition of less than 80 to 60% or higher)	5 (% Mycerial growth inhibition of 80% or higher)	5 (% Mycerial growth inhibition of 80% or higher)	5 (% Mycerial growth inhibition of 80% or higher)	5 (% Mycerial growth inhibition of 80% or higher)	5 (% Mycerial growth inhibition of 80% or higher)	5 (% Mycerial growth inhibition of 80% or higher)	5 (% Mycerial growth inhibition of 80% or higher)	Growth inhibition grade U.n ([12]; 5 mg/L): 5 (% Mycerial growth inhibition of 80% or higher); Growth inhibition grade F.g ([13]; 1.25 mg/L): 5 (% Mycerial growth inhibition of 80% or higher); Growth inhibition grade F.g ([13]; 5 mg/L): 5 (% Mycerial growth inhibition of 80% or higher); Protective value [14]: 4 (61 to 80); Growth inhibition grade R. sec ([15]; 1.25 mg/L): 5 (% Mycerial growth inhibition of 80% or higher); Growth inhibition grade R. sec ([15]; 5 mg/L): 5 (% Mycerial growth inhibition of 80% or higher); Growth inhibition grade F.c ([16]; 1.25 mg/L): 5 (% Mycerial growth inhibition of 80% or higher); Growth inhibition grade F.c ([16]; 5 mg/L): 5 (% Mycerial growth inhibition of 80% or higher)
CC1(C)OCC2(CCC(Cc3ccc(Cl)cc3)C2(O)Cn2cncn2)CO1 (stereo not drawn) [Compound V′-a-cis, 2-(4-chlorobenzyl)-8,8-dimethyl-1-[1,2,4]triazole-1-ylmethyl-7,9-dioxaspiro[4,5]decane-1-ol]																					Anti-bacterial effect index against various microorganisms P.o [17]: 5 (% Mycerial growth inhibition of 80% or higher); Anti-bacterial effect index against various microorganisms S.t [18]: 5 (% Mycerial growth inhibition of 80% or higher); Anti-bacterial effect index against various microorganisms R.o [19]: 5 (% Mycerial growth inhibition of 80% or higher); Anti-bacterial effect index against various microorganisms R. sec [20]: 5 (% Mycerial growth inhibition of 80% or higher); Anti-bacterial effect index against various microorganisms G.g (G.g): 5 (% Mycerial growth inhibition of 80% or higher); Anti-bacterial effect index against various microorganisms P.n [21]: 5 (% Mycerial growth inhibition of 80% or higher); inhibition at 1.25 µg/mL ([11]; 336 h, read-out: Growth inhibition grade): > 80%; Anti-bacterial effect index against various microorganisms M.n [22]: 5 (% Mycerial growth inhibition of 80% or higher); Anti-bacterial effect index against various microorganisms P.g [23]: 5 (% Mycerial growth inhibition of 80% or higher)
